Laboratory results taken from patent publication US20250134889A1, “TARGETING IRE1 KINASE AND FMRP FOR PROPHYLAXIS, MANAGEMENT AND TREATMENT OF ATHEROSCLEROSIS” (CEDARS-SINAI MEDICAL CENTER, priority 2022, published 2025).

Legend:
[1] = target: T1, human IRE1-kinase/RNase domains (amino acids 468-977) (Homo sapiens, UniProt O75460); test: Kinase reaction with purified recombinant IRE1 and FMRP; assay type: biochemical; conditions: purified proteins, ATP-γ-S
T1 construct: recombinant human IRE1-kinase/RNase domains (amino acids 468-977); purchased Biotech (so in the source) E31-11G
T1 sequence (O75460 468-977): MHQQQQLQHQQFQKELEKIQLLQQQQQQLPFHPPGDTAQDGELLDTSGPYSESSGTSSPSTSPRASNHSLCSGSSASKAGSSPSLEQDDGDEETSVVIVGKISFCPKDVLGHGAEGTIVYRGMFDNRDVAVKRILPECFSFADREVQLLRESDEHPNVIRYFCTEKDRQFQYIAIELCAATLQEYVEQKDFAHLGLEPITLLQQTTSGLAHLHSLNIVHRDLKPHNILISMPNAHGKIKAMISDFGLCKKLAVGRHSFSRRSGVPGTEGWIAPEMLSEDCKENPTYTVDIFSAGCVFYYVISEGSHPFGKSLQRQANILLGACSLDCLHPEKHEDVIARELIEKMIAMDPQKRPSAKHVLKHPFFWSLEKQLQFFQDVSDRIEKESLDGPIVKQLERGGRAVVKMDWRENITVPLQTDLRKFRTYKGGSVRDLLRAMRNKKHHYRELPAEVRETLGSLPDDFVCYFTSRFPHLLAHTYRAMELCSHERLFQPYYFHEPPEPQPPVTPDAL

[2] = tested on: BMDM; test: In vitro efferocytosis; assay type: cell-based, mouse
From the text: FIGS. 3A-3G depict that FMRP-deficiency increases efferocytosis in vivo. (For all images scale bar=50 μm; Red: Macrophages, Green: AC/AC-1, Violet: AC-2. Data are mean±SEM. Unpaired t-test with Welch's correction. * P≤0.05, ** P≤0.01, *** P≤0.001.) • 3A-3E. In vitro and in vivo efferocytosis experiments, where percentage of macrophages F4/80^+ (red) that ingested apoptotic cells (AC) labeled with carboxyfluorescein succinimidyl ester (CFSE)^+ (green) were reported as % efferocytosis. • 3A. BMDMs were transfected with Fmr1- or control-siRNA and incubated CFSE-labeled AC for the indicated hours (n=4). • 3B. Fmr1^+/+ and Fmr1^−/− BMDMs were treated with PA (500 μM) for 6 hours and then incubated with CFSE-labeled ACs for 4 hours (n=4). • 3C. Fmr1^+/+ and Fmr1^−/− mice were fed WD (16 weeks) and injected intraperitoneally with CFSE-labeled AC (1.5 hours), followed by PM elicitation (n=4-5). • 3D. BMDM were pre-treated either with vehicle (DMSO) or AMG-18 (5 μM) for 1 hour then incubated with CFSE-labeled ACs for 4 hours (n=4). • 3E. […] In vitro continuous efferocytosis experiments, where macrophages were stained for F4/80^+ (red), AC were labeled with CFSE (AC-1; green) or Violet (AC2; violet). % continuous efferocytosis was determined by the ratio of F4/80^+, CFSE^+ and Violet^+ (triple positive) cells to total F4/80^+/+ and CFSE^+ (double positive) cells. • 3F. […]

Cc1ccc2c(NS(=O)(=O)c3ccccc3Cl)cccc2c1Oc1ncccc1-c1ccnc(N[C@H]2CCCNC2)n1 [AMG-18]
FMRP phosphorylation in kinase reaction [1]: AMG-18-sensitive | IRE1 phosphorylation in kinase reaction [1]: AMG-18-sensitive | continued efferocytosis of ACs ([2]; AMG-18 5 μM 1 hour, AC-1 2 hours then AC-2 2 hours): enhanced | efferocytosis of ACs ([2]; CFSE-labeled ACs, AMG-18 5 μM 1 hour then ACs 4 hours, siRNA transfected BMDM): increased
